Assay results reported in article PMC6958523, “Metabolism and Pharmacokinetic Study of the Boron-Containing Prodrug of Belinostat (ZL277), a Pan HDAC Inhibitor with Enhanced Bioavailability” (Pharmaceuticals, 2019).

Columns and labels:
[1] = Metabolites of ZL277 in urine and fecal samples from treated mice; type: in vivo; details: for metabolite detected in Urine: mice after IP injection of ZL277; for relative abundance among metabolites in feces / relative abundance among metabolites in urine: mice treated with ZL277
Method: (§1) Four to six-week-old female ovariectomized Nu/Nu mice (Genotype: Homozygous genotype, homozygous for Foxn1), purchased from Charles River Laboratories (Wilmington, MA, USA), were used for the study of ZL277 metabolites in vivo. Six mice in each group were given ethanol-dissolved ZL277 and belinostat, at a single dose of 10 mg/kg by intraperitoneal injection (IP). After IP administration, venous blood samples were collected at 1, 3, 6, and 24 h time points. Urine and fecal samples were collected for the time duration of 0–8 h, 8–24 h, 24–32 h, and 32–48 h after IP administration.
(§2) Plasma, urine, or feces samples were processed following protocols published previously. These samples were injected on the Hypersil GOLD C18 column (1.8 µm, 2.1 × 50 mm) with UHPLC ultimate 3000 from Dionex, coupled with a […] mass spectrometer, to quantitate the concentration of the main metabolites of ZL277. The 10 µL samples were run with the gradient starting at 0.3 mL/min from 2% mobile phase B (acetonitrile with 0.05% formic acid) and 98% mobile phase A (water with 0.05% formic acid) until 1 min, up to 30% B at 3 min, 45% B at 4.8 min, 100% B at 5.5 min, then back to 30% B until equilibration. SRM mode was used to detect ZL277 (pos 535.21→134.97), ZL277-B(OH)2-452 (neg 451.13→256.04), ZL277-424-OH (neg 423.07→317.04), belinostat (neg 317.02→245.05) or (pos 319.08→93.08), belinostat amide (pos 303.08→91.05), belinostat acid (neg 302.05→92.05), methylated belinostat (pos 333.09→239.92). The product scan in MS/MS mode was used to detect belinostat–sulfate (neg 397.02→97.02), and belinostat–glucoronate (pos 495.09→319.27). The […] was set at spray voltage at 3200 V, vaporizer temperature at 365 °C, sheath gas pressure at 33 psi, auxiliary gas pressure at 10 psi, and capillary temperature at 350 °C. Additional experimental details can be found in Figures S1 and S2, and Tables S1–S8.
Sample preparation protocols: […]
(2) Feces sample preparation: The collected feces samples were weighed on an OHAUS Explorer balance. The internal standard of trans-tamoxifen-13C2,15N (0.5 ng/μL in methanol) was added to the feces samples based on 10 ng/g feces according to the weight of the feces collected. Methanol was added at the ratio of 4 mL/g feces. Then the samples were homogenized with a Power Gen 125 homogenizer (Fisher Scientific) and stored at - 20 °C overnight. After sonicating for 30 min, the samples were centrifuged with a Heraeus Megafuge16R centrifuge at 3000 RPM. The supernatant was dried at room temperature and resuspended with corresponding amount of methanol (200 μL methanol/g feces) for injection on the TSQ Vantage instrument.
(3) Urine sample preparation: Urine samples were thawed at room temperature and vortexed. 200 μL of the sample was transferred to a 1.5 mL Eppendorf microcentrifuge tube followed by adding 200 μL methanol and 10 μL of the 0.5 ng/μL trans-tamoxifen-13C2, 15N in methanol solution. After Vortaxing and centrifuging, the top supernatant was injected on the UPLC-TSQ Vantage mass spectrometer instrument for analysis.

[2] = Drug and metabolite concentrations in MCF-7 xenograft breast tumor tissues of treated mice; type: in vivo; details: breast tumor xenograft in mice treated with ZL277
Method: Four to six week old female ovariectomized Nu/Nu mice, implanted subcutaneously with 17β-Estradiol pellets, were injected with MCF-7 cells harvested in the exponential growth phase to grow the breast tumors. On day 15 after tumor formation, the mice were treated with vehicle, belinostat, at 10 mg/kg/day, or ZL277 at 10 mg/kg/day, by subcutaneous injection. On the last day of the study, the tumors were collected and frozen for analysis.
as §2

[3] = Pharmacokinetics and in vivo metabolites of ZL277 in mice plasma after single IP dose; details: for metabolite detected in Plasma: mice after IP injection of ZL277
Method: as §1, §2
Sample preparation protocols:
(1) Plasma sample preparation: Plasma samples (100 μL) were extracted with methanol.
Internal standard (10 μL 0.5 ng/μL trans-tamoxifen-13C2, 15N in methanol), methanol
(0.5 mL) were added to each plasma sample. The mixtures were stored at −20 °C
overnight. Samples were sonicated for 10 min and then centrifuged on a Heraeus Fresco

MCF-7 tumor xenograft = tested on: MCF-7 tumor xenograft; design: method as in PMID 29456804; details: mice; cited from earlier work
[4] = In vitro sulfation of ZL277 in liver cytosol with PAPS; type: in vitro ADME; details: rat liver cytosol, 30 min
Method: The incubation of ZL277 with liver cytosols followed a similar procedure to the study of sulfation of ZB716 [23]. After termination of incubation with 300 µL MeOH, the final mixture was centrifuged. The supernatant was analyzed on the UHPLC-Q-Exactive instrument.
(§3) The samples from in vitro incubations were run on a Hypersil GOLD C18 column (1.8 µm, 2.1 × 50 mm) with UHPLC ultimate 3000 from Dionex coupled with one Q-Exactive HR mass spectrometer (Thermo Scientific, Waltham, MA, USA). The gradient started at 20% mobile phase B (Acetonitrile with 0.05% formic acid) and 80% mobile phase A (water with 0.05% formic acid), increased to 100% B in 4.5 min at 0.3 mL/min, stayed for 5 min, then came back to 30% B until equilibration. PRM mode or full scan mode was used to identify the interested metabolites.

[5] = In vitro metabolism of ZL277 in liver S9 fraction with NADPH; type: in vitro ADME; details: rat liver S9, NADPH, 1 h
Method: The incubation of ZL277 with liver S9 fractions followed the procedures of incubation with liver microsomes, as described previously. The pre-incubation solution consisted of 30 µL of potassium phosphate buffer (pH 7.4; 10X), 241.5 µL water, 15 µL of NADPH solution A, 3 µL of NADPH solution B, 7.5 µL rat liver S9 fractions. After incubation at 37 °C for 5 min in a 1.5 mL microcentrifuge vial, 3 µL of 10 mM ZL277 was added, mixed, and incubated at 37 °C for another 60 min in the incubator. Then, 300 µL MeOH was added to terminate the reaction. After centrifugation, the supernatant was analyzed on the UHPLC, coupled to a Q-Exactive high-resolution mass spectrometer.
as §3

MDA-MB-231 = tested on: MDA-MB-231; design: method as in PMID 29456804; details: cited from earlier work
MCF-7 = tested on: MCF-7; design: method as in PMID 29456804; details: cited from earlier work

Structure (SMILES) | metabolite detected in Urine [1] | relative abundance among metabolites in feces [1] | relative abundance among metabolites in urine [1] | metabolite detected in Tumor [2] | metabolite detected in Plasma [3] | other results
O=C(O)/C=C/c1cccc(S(=O)(=O)Nc2ccccc2)c1 [Belinostat acid, belinostat acid] | detected | dominantly | dominant components | found | detected | –
NC(=O)/C=C/c1cccc(S(=O)(=O)Nc2ccccc2)c1 [Belinostat amide, belinostat amide] | detected | – | – | found | detected | –
O=C(/C=C/c1cccc(S(=O)(=O)Nc2ccccc2)c1)NO [Belinostat, belinostat] | detected | major metabolites | major components | found | detected | effect on growth of MCF-7 tumor xenograft (MCF-7 tumor xenograft): only inhibited tumor growth
O=C(/C=C/c1cccc(S(=O)(=O)Nc2ccccc2)c1)NOS(=O)(=O)O [Belinostat–sulfate] | – | – | – | – | – | sulfate conjugate found after incubation of ZL277 [4]: No peak
CONC(=O)/C=C/c1cccc(S(=O)(=O)Nc2ccccc2)c1 [Methylated belinostat, methylated belinostat] | detected | – | – | found | detected | –
O=C(/C=C/c1cccc(S(=O)(=O)Nc2ccccc2)c1)NOCc1ccc(B(O)O)cc1 [ZL277-B(OH)2-452] | – | major metabolites | major components | – | – | relative abundance among drug-related forms in plasma ([3]; mice treated with ZL277): predominant form
O=C(/C=C/c1cccc(S(=O)(=O)Nc2ccccc2)c1)NOCc1ccc(OS(=O)(=O)O)cc1 [ZL277-OH-424-sufate] | – | – | – | – | – | sulfate conjugate found after incubation of ZL277 [4]: detected
O=C(/C=C/c1cccc(S(=O)(=O)Nc2ccccc2)c1)NOCc1ccc(O)cc1 [ZL277-OH-424] | – | major metabolites | major components | – | – | metabolite found after incubation of ZL277 with liver S9 fraction [5]: major oxidative metabolite
CC1(C)OB(c2ccc(CONC(=O)/C=C/c3cccc(S(=O)(=O)Nc4ccccc4)c3)cc2)OC1(C)C [ZL277] | – | – | – | – | – | antiproliferative activity compared with belinostat (MDA-MB-231): slightly weaker; metabolite found after incubation of ZL277 with liver S9 fraction [5]: not found; antiproliferative activity compared with belinostat (MCF-7): slightly weaker; bioavailability compared to belinostat ([3]; mice, 10 mg/kg IP): superior; effect on growth of MCF-7 tumor xenograft (MCF-7 tumor xenograft): caused tumor regression
